Results taken from article PMC4013053, “Identification of Selective Small Molecule Inhibitors of the Nucleotide-Binding Oligomerization Domain 1 (NOD1) Signaling Pathway” (PLoS ONE, 2014).
Values belong to the compound of their own block, whether it stands above or below them.

Experiments:
CAMK1 = target: T1, CAMK1 (Homo sapiens, UniProt Q14012); experiment: Kinase activity panel: CAMK1; assay type: biochemical; conditions: 1 µM compound, 10 µM ATP
T1 construct: purchased Reaction Biology Corp
Protocol: (§1) The compounds were tested in duplicate at 1 µM with a 20-minute pre-incubation with enzyme followed by addition of 10 µM ATP.

[1] = test system: panel of 300 human kinases; experiment: Kinase activity panel (Reaction Biology Corp); assay type: biochemical; conditions: 1 µM compound, 10 µM ATP, 300 kinases
Protocol: as §1

murine NOD1 = experiment: NOD1 stimulated KC (CXCL1) production in murine bone marrow derived macrophages; assay type: cell-based, mouse; conditions: murine BMDM, 25 µg/mL FK156 or Tri-DAP, 24 hours
Protocol: C57BL/6 mice were obtained from the Jackson Laboratories. Bone marrow was flushed from the femurs and tibiae of adult (∼3 month old) mice with serum-free DMEM medium using a 23-gauge needle and syringe. A fine cell suspension was obtained by gentle aspiration and passage through a […] cell strainer. After centrifugation and re-suspending in DMEM supplemented with 10%HI-FBS, the mononuclear cells obtained from each animal were plated into the central 60 wells of a 96-well plate. After 24 hours, the medium and non-adherent cells were removed and replaced with DMEM with 10%HI-FBS containing 10 ng/mL M-CSF and the cells cultured for 1 week with two additional medium changes. After this time the medium was aspirated and the cells pre-treated with compounds for 1 hour and then stimulated for 24 hours with either 25 µg/mL Tri-DAP or FK156. Each treatment was performed in triplicate wells. The concentration of murine KC (CXCL1) together with 6 other cytokines/chemokines present in conditioned medium was then determined using the murine pro-inflammatory 7-plex assay (Meso Scale Discovery).

NOD1 [2] = target: T2, NOD1 (Mus musculus, UniProt Q8BHB0); experiment: FK156 acute peritonitis model in mice, serum KC and IP-10; assay type: in vivo; conditions: oral administration, intraperitoneal FK156, data not shown
T2 construct: following intraperitoneal injection of FK156 in a model of acute peritonitis; from tissue; host or cells: whole mouse (in vivo)
T2 sequence (Q8BHB0 1-953): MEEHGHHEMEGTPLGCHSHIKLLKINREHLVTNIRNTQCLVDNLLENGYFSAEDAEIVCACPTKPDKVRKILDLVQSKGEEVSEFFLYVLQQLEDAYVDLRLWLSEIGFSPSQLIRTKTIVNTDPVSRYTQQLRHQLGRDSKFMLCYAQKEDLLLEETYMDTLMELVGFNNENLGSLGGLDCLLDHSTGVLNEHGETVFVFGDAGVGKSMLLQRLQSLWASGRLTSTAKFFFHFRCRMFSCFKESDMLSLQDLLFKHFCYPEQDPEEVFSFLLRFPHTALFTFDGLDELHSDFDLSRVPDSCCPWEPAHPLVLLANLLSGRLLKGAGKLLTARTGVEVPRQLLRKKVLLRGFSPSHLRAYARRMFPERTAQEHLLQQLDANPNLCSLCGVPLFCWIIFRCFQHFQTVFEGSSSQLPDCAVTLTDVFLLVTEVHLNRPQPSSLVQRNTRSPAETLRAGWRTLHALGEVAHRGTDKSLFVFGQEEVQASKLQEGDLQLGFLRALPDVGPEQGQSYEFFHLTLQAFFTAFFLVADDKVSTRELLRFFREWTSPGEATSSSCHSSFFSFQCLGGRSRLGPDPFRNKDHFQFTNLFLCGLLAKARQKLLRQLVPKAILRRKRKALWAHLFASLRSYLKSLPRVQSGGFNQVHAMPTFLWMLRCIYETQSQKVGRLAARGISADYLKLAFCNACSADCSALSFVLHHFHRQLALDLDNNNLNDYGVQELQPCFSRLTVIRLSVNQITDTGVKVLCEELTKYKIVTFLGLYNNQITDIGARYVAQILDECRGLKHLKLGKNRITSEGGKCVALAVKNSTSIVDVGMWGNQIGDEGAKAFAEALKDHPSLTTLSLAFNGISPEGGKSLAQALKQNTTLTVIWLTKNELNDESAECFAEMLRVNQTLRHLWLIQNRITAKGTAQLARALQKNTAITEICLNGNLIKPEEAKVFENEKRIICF
Description: We speculate that the known differences in ligand recognition between human and mouse NOD1 mapped to residues within the leucine-rich repeat domains could underlie the observed differential activity of the compounds on human versus mouse NOD1 signaling.

NOD1 [3] = test system: NOD1; set-up: method as in PMID 22870324; conditions: human lung microvascular endothelial cells, 10 µg/mL iE-DAP; cited from earlier work
TLR4 = test system: TLR4; set-up: method as in PMID 22870324; conditions: human lung microvascular endothelial cells; cited from earlier work
[4] = test system: NOD1 induced NF-κB and MAPK pathways; experiment: Western blotting of IκBα and phospho-MAPKs in Tri-DAP stimulated 293/hNOD1 cells; assay type: cell-based, human; conditions: 50 µg/mL Tri-DAP 1 hour, immunoblotting
Protocol: Confluent cultures of 293/hNOD1 and -hNOD2 cells seeded in 24-well plates were serum-starved over-night, pre-incubated for 1 hour with compound and then stimulated for 1 hour with either 50 µg/mL Tri-DAP or 25 µg/mL MDP, respectively. Whole cell lysates were prepared in 1X cell lysis buffer (Cell Signaling Technology) supplemented with additional protease, aminopeptidase and phosphatase inhibitors (protease inhibitor cocktail set III, EMD Biosciences; phosphatase inhibitor sets II and III, Sigma-Aldrich). The levels of phosphorylated and total p38, JNK, ERK1/2 and total IκBα were determined by immunoblotting of ∼20 µg protein per sample using the following primary antibodies: phospho-p38 MAPK (12F8, #4631), p38 MAPK (#9212), phospho-JNK (#9251), JNK (#9252) and IκBα (#9242) all purchased from Cell Signaling Technology, and phospho-ERK1/2 (sc-7383) and ERK1/2 (sc-94) antibodies from Santa Cruz Biotechnology.

- decrease of CAMK1 activity (CAMK1): 55%
Compound: Cc1nc2ccc(NC(=O)c3cccc(NS(=O)(=O)c4ccc(F)cc4)c3)cc2s1 [GSK966]

- inhibition of any kinase in panel [1]: ≤ 50%
Compound: CCc1ccc(S(=O)(=O)Nc2cc(-n3c(C)nc4ccccc4c3=O)ccc2F)s1 [GSK223]

Compound: Cc1nc2ccccc2c(=O)n1-c1ccc(Cl)c(NS(=O)(=O)c2ccccc2F)c1 [Compound 22]
- inhibition of FK156 or Tri-DAP-stimulated KC production (murine NOD1): little or no inhibitory activity
- effect on serum KC and IP-10 (CXCL10) (NOD1 [2]): failed to reduce serum KC and IP-10 (CXCL10)
- effect on IL-8 secretion, iE-DAP stimulated (NOD1 [3]): inhibited IL-8 secretion
- effect on IL-8 release, LPS stimulated (TLR4): no inhibitory effect

Compound: Cc1ccc(S(=O)(=O)Nc2cccc(C(=O)Nc3ccc4nc(C)sc4c3)c2)cc1 [Compound 16]
- effect on Tri-DAP induced p-JNK, p-p38 and IκBα responses [4]: reduced both phospho-JNK and the weaker phospho-p38 levels while levels of IκBα were increased
- inhibition of FK156 or Tri-DAP-stimulated KC production (murine NOD1): partial inhibition at best
